In ChEMBL document CHEMBL3585260, “2-Aminoalkyl nicotinamide derivatives as pure inverse agonists of the ghrelin receptor” (Bioorg Med Chem Lett, 2015):
pIC50: −log10 of the molar value. Activity calls are given as the source filed them. The calls are words filed in the database; no cut-off is given here.

Columns and labels:
[1] = molecular target: Growth hormone secretagogue receptor type 1 (Rattus norvegicus) (UniProt O08725); experiment: Inverse agonist activity at rat ghrelin receptor expressed in HEK293 cells assessed as blockade of constitutive receptor activity b by NFAT-RE-luciferase reporter gene assay; type: cell-based
Sequence of Growth hormone secretagogue receptor type 1 (Rattus norvegicus) (O08725 whole entry): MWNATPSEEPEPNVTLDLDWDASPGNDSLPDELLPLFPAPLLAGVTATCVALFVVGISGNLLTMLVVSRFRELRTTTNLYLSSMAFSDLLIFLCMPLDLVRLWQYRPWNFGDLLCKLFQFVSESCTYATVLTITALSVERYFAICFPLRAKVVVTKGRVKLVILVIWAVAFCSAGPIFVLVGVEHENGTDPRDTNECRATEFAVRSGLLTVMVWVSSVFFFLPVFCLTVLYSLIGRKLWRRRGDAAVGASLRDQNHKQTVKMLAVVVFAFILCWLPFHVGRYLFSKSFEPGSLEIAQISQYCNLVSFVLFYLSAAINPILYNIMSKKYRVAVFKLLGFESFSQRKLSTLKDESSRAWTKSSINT

[2] = molecular target: Neurotensin receptor type 2 (Homo sapiens) (UniProt O95665); experiment: Inverse agonist activity at NTSR2 (unknown origin) expressed in HEK293 cells assessed as suppression of constitutive receptor activity by NFAT-RE-luciferase reporter gene assay; type: cell-based
Sequence of Neurotensin receptor type 2 (Homo sapiens) (O95665 whole entry): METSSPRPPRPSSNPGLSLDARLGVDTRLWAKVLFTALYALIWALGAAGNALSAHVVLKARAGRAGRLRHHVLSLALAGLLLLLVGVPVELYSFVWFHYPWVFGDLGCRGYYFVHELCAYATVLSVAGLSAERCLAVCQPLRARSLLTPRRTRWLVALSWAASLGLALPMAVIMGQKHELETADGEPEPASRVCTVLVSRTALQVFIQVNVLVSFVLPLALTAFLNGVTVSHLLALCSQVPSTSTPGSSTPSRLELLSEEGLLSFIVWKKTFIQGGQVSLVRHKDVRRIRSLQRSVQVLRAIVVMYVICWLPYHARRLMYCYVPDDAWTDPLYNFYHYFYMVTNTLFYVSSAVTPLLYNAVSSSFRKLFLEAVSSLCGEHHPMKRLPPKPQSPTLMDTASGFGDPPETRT

[3] = molecular target: T1, Growth hormone secretagogue receptor type 1 (Homo sapiens, UniProt Q92847); experiment: Binding affinity to ghrelin receptor (unknown origin)
T1 sequence (Q92847 whole entry): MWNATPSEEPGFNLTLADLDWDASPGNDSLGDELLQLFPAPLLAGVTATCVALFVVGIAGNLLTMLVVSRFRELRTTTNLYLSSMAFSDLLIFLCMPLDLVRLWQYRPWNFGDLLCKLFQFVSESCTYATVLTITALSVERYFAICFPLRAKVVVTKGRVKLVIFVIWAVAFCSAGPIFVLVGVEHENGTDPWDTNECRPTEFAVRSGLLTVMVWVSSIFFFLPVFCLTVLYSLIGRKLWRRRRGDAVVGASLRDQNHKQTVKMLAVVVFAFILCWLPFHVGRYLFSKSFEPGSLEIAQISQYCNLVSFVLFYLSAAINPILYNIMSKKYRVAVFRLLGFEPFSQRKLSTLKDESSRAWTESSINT

[4] = molecular target: T2, Growth hormone secretagogue receptor type 1 (Rattus norvegicus, UniProt O08725); experiment: Inverse agonist activity at rat ghrelin receptor expressed in HEK293 cells by NFAT-RE-luciferase reporter gene assay; type: cell-based
T2 sequence (O08725 whole entry): as the sequence (O08725 whole entry) above

[5] = tested on: Mus musculus; experiment: Toxicity in mouse model of high fat diet-induced obesity assessed as induction of sedation at 10 and 30 mg/kg, sc; type: organism-based; settings: in vivo
[6] = tested on: Mus musculus; experiment: Inhibition of ghrelin-induced food intake in mouse model of high fat diet-induced obesity at 30 mg/kg, sc dosed twice daily for 14 days; type: functional, organism-based
[7] = molecular target: Cholecystokinin receptor type A (Homo sapiens) (UniProt P32238); experiment: Inhibition of radioligand binding at human CCKA at 10 uM
[8] = Oral bioavailability in mouse at 10 mg/kg, administered as single dose; type: ADME, organism-based; settings: in vivo
[9] = tested on: Mus musculus; experiment: Toxicity in mouse model of high fat diet-induced obesity assessed as induction of behavioral effect at 10 and 30 mg/kg, sc; type: organism-based; settings: in vivo
[10] = tested on: Salmonella typhimurium; experiment: Mutagenicity in Salmonella typhimurium by Ames test; type: toxicity, organism-based; settings: salmonella enterica subsp. enterica serovar typhimurium
[11] = Total clearance in mouse at 10 mg/kg administered as single dose; type: ADME, organism-based; settings: in vivo
[12] = tested on: Rattus norvegicus; experiment: Toxicity in rat assessed as induction of behavioral effect at 10 to 30 mg/kg, ip; type: organism-based; settings: in vivo
[13] = Bioavailability in mouse at 10 mg/kg, sc administered as single dose; type: ADME, organism-based; settings: in vivo
[14] = molecular target: Neuropeptide Y receptor type 1 (Homo sapiens) (UniProt P25929); experiment: Inhibition of radioligand binding at human neuropeptide Y1 receptor at 10 uM
Sequence of Neuropeptide Y receptor type 1 (Homo sapiens) (P25929 whole entry): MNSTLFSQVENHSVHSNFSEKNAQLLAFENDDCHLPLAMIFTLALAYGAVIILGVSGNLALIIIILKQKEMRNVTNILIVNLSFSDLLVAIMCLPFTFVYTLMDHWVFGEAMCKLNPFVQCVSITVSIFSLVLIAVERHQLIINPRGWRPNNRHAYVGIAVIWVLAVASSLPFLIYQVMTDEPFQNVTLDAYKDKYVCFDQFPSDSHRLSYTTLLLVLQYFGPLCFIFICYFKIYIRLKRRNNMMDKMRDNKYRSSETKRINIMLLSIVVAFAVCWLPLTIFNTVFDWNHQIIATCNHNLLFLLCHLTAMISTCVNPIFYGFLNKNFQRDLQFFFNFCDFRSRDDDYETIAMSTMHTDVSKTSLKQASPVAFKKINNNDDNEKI

[15] = Inhibition of ghrelin-induced growth hormone release in rat primary pituitary cells; type: functional, cell-based; settings: Pituitary gland cell
[16] = tested on: Rattus norvegicus; experiment: Inhibition of ghrelin-induced gastric emptying in rat assessed as suppression of gastric content at 10 mg/kg, sc pre-treated 15 mins before ghrelin challenge; type: functional, organism-based; settings: Stomach
[17] = molecular target: Adrenergic receptor alpha-2 (Homo sapiens) (UniProt P08913+P18825+P18089); experiment: Inhibition of radioligand binding at alpha-2 adrenergic receptor (unknown origin) at 10 uM
[18] = tested on: Rattus norvegicus; experiment: Inhibition of ghrelin-induced food intake in rat at 15 to 30 mg/kg, ip after 30 mins; type: functional, organism-based
[19] = molecular target: Cannabinoid receptor 1 (Homo sapiens) (UniProt P21554); experiment: Inhibition of radioligand binding at human CB1 receptor at 10 uM
[20] = molecular target: hERG (KCNH2) (Homo sapiens, UniProt Q12809); experiment: Inhibition of human ERG at 10 uM
Sequence of hERG (KCNH2) (Q12809 whole entry): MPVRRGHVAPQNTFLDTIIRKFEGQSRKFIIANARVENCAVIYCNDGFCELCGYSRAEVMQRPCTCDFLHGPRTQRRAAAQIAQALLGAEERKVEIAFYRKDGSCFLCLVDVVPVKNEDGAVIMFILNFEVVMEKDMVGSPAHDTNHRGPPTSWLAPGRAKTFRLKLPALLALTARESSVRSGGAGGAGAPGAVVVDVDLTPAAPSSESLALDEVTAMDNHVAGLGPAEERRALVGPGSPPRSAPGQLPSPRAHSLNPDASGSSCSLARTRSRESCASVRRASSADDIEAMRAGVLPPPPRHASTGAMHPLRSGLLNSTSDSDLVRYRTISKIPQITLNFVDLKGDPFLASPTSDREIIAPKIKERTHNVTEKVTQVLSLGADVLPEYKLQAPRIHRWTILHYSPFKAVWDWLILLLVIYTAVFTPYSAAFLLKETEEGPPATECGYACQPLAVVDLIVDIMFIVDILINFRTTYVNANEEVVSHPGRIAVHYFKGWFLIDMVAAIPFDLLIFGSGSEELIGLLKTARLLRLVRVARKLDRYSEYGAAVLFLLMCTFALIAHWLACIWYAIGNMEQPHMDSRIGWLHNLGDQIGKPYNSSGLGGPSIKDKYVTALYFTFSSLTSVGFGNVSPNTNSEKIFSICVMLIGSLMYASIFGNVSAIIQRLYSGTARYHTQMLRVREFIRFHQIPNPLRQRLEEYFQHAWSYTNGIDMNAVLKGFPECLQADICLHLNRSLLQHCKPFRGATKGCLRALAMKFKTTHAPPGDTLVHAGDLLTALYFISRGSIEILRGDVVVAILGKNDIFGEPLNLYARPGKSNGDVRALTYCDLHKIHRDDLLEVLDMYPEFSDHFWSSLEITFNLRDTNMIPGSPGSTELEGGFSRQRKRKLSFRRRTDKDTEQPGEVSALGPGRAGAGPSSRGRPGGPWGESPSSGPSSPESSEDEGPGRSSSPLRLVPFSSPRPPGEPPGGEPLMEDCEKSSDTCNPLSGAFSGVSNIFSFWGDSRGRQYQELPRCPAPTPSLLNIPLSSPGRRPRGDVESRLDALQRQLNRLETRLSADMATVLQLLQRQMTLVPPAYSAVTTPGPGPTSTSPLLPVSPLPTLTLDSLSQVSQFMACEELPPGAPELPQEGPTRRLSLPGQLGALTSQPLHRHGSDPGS

[21] = tested on: Mus musculus; experiment: Inhibition of ghrelin-induced food intake in mouse model of high fat diet-induced obesity at 10 mg/kg, sc dosed twice daily for 14 days; type: functional, organism-based
[22] = Protein binding in human plasma; type: ADME, cell-free; settings: read-out: PPB
[23] = molecular target: 5-hydroxytryptamine receptor 2C (Homo sapiens) (UniProt P28335); experiment: Inhibition of radioligand binding at human 5HT2C receptor at 10 uM
Sequence of 5-hydroxytryptamine receptor 2C (Homo sapiens) (P28335 whole entry): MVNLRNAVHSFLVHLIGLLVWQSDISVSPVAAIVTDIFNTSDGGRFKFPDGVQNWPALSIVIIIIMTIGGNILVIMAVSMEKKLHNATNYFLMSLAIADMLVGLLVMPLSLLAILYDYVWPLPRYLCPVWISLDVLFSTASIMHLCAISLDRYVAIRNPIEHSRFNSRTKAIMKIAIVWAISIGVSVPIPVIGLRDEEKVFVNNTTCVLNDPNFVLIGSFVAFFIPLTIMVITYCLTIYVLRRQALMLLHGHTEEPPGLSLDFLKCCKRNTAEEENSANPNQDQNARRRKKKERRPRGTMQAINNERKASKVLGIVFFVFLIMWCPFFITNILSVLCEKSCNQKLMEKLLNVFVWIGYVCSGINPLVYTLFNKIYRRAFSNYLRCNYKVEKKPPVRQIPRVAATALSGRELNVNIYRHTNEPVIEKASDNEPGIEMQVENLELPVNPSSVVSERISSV

[24] = tested on: Rattus norvegicus; experiment: Inhibition of ghrelin-induced gastric emptying in rat assessed as suppression of gastric motility at 10 mg/kg, sc pre-treated 15 mins before ghrelin challenge; type: functional, organism-based; settings: Stomach
[25] = molecular target: D(1A) dopamine receptor (Homo sapiens) (UniProt P21728); experiment: Inhibition of radioligand binding at dopamine D1 receptor (unknown origin) at 10 uM
[26] = molecular target: D(2) dopamine receptor (Homo sapiens) (UniProt P14416); experiment: Inhibition of radioligand binding at dopamine D2 receptor (unknown origin) at 10 uM
Sequence of D(2) dopamine receptor (Homo sapiens) (P14416 whole entry): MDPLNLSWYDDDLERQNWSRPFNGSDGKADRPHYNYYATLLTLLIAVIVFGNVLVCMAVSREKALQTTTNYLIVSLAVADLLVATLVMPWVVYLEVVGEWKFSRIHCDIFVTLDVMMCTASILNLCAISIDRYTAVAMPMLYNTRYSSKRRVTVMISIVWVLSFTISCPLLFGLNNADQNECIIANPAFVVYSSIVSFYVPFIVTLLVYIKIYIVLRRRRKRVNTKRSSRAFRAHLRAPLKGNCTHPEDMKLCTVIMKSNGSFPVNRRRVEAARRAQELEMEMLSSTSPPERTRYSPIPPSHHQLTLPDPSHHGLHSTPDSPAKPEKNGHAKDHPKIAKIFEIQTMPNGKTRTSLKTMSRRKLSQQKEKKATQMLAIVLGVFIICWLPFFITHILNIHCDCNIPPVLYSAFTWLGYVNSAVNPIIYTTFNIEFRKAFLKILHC

[27] = Bioavailability in mouse at 10 mg/kg, ip administered as single dose; type: ADME, organism-based; settings: in vivo
[28] = molecular target: Sodium-dependent serotonin transporter (Homo sapiens) (UniProt P31645); experiment: Inhibition of radioligand binding at human SERT at 10 uM
Sequence of Sodium-dependent serotonin transporter (Homo sapiens) (P31645 whole entry, looked up): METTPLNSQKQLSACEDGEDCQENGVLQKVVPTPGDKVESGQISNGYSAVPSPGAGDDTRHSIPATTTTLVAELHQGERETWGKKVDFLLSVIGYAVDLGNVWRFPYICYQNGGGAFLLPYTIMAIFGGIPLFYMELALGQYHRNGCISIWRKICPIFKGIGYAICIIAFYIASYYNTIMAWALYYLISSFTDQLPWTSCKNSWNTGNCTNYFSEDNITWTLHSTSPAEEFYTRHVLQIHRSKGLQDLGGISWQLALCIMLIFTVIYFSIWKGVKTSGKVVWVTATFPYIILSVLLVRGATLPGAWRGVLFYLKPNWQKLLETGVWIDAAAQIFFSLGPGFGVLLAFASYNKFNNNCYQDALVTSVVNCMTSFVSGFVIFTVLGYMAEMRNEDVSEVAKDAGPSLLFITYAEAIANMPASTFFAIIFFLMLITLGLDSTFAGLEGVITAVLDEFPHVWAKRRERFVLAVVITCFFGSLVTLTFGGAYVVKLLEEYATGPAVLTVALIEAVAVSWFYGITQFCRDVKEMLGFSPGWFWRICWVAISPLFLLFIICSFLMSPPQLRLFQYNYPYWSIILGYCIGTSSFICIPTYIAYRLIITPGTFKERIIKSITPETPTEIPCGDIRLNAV

[29] = Ratio of drug level in brain to plasma in mouse at 10 mg/kg, ip administered as single dose after 1 hr; type: ADME, organism-based; settings: brain and plasma, read-out: BPR
[30] = molecular target: Motilin receptor (Homo sapiens) (UniProt O43193); experiment: Inhibition of radioligand binding at human MTLR1 at 10 uM
[31] = molecular target: Melanocortin receptor 4 (Homo sapiens) (UniProt P32245); experiment: Inhibition of radioligand binding at human melanocortin MC4 receptor at 10 uM
Sequence of Melanocortin receptor 4 (Homo sapiens) (P32245 whole entry): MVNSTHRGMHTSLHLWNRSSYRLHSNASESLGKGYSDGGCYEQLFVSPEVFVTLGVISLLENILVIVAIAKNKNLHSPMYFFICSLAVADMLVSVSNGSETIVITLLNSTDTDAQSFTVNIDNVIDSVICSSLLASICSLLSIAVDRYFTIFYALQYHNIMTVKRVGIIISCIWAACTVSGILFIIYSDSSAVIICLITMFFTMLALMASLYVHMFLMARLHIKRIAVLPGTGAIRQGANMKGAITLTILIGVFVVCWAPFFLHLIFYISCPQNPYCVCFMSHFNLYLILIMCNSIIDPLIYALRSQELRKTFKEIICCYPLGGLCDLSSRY

[32] = tested on: Rattus norvegicus; experiment: Inhibition of ghrelin-induced growth hormone release in rat at 3 mg/kg, iv pre-treated 5 mins before ghrelin challenge; type: functional, organism-based
[33] = molecular target: CYP3A4 (Homo sapiens, UniProt P08684); experiment: Inhibition of CYP3A4 (unknown origin) at 10 uM; type: ADME
[34] = molecular target: T1, Growth hormone secretagogue receptor type 1; experiment: Antagonist activity against ghrelin receptor (unknown origin) expressed in CHO cells assessed as inhibition of ghrelin-induced calcium response; type: functional, cell-based
[35] = molecular target: Sodium-dependent noradrenaline transporter (Homo sapiens) (UniProt P23975); experiment: Inhibition of radioligand binding at human NET at 10 uM
[36] = tested on: Rattus norvegicus; experiment: Toxicity in rat assessed as induction of sedation at 10 to 30 mg/kg, ip; type: organism-based; settings: in vivo
[37] = tested on: Liver microsome; experiment: Drug metabolism in human liver microsomes; type: ADME
[38] = Toxicity against HEK293 cells assessed as cell viability at 2 uM by alamar blue staining method; type: cell-based; settings: human, read-out: Activity
[39] = Toxicity against HEK293 cells assessed as cell viability at 50 uM by alamar blue staining method; type: cell-based; settings: human, read-out: Activity
[40] = tested on: HEK293; experiment: Toxicity against HEK293 cells assessed as cell viability up to 10 uM by alamar blue staining method; type: cell-based; settings: human
[41] = tested on: HEK293; experiment: Toxicity against HEK293 cells assessed as cell viability at >10 uM by alamar blue staining method; type: cell-based; settings: human
[42] = molecular target: T2, Growth hormone secretagogue receptor type 1; experiment: Inverse agonist activity at rat ghrelin receptor by inositol phosphate turnover assay; type: functional
[43] = molecular target: T2, Growth hormone secretagogue receptor type 1; experiment: Inverse agonist activity at rat ghrelin receptor expressed in HEK293 cells by inositol phosphate turnover assay; type: functional, cell-based

## CCCn1cc(-c2cnc(NCc3ccc4c(c3)OCC4)c(C(=O)NCC3COc4ccccc4O3)c2)cn1 (racemic)
[1]
  Efficacy: > 95%
[2]
  Activity: inactive
[3]
  pIC50: 7.96
[4]
  pIC50: 6.85

## C[C@@H]1CN(c2cnc(NCc3ccc4c(c3)OCC4)c(C(=O)NC[C@H]3COc4ccccc4O3)c2)C[C@H](C)O1
[1]
  Efficacy: > 95%
[2]
  Activity: inactive
[3]
  pIC50: 8.14
[4]
  pIC50: 6.46

## CC(=O)N1[C@@H]2CC[C@H]1C=C(c1cnc(NCc3ccc4c(c3)OCC4)c(C(=O)NC[C@H]3COc4ccccc4O3)c1)C2 (mixture of isomers)
[5]
  Activity: Non-toxic
[6]
  inhibition: Active
[7]
  inhibition: 0%
[8]
  bioavailability: 0.64%
[9]
  Activity: Non-toxic
[10]
  Activity: Non-toxic
[11]
  clearance: 68.2 mL/min/kg
[12]
  Activity: Non-toxic
[13]
  bioavailability: 99.1%
[14]
  inhibition: 1%
[15]
  pIC50: 7.89
[16]
  inhibition: Active
[17]
  inhibition: 12.6%
[18]
  inhibition: Active
[19]
  inhibition: 0%
[20]
  inhibition at 10 µM: 36%
[21]
  inhibition: Active
[1]
  Efficacy: > 95%
[22]
  fraction unbound: 0.01
[23]
  inhibition: 7.1%
[24]
  inhibition: Active
[25]
  inhibition: 5.6%
[26]
  inhibition: 7.1%
[27]
  bioavailability: 83.2%
[28]
  inhibition: 0%
[29]
  Kp at 1 h: 0.005
[30]
  inhibition: 18.8%
[31]
  inhibition: 2.4%
[32]
  inhibition: Active
[2]
  Activity: inactive
[33]
  inhibition at 10 µM: 26%
[3]
  pIC50: 9.02
[34]
  pIC50: 7.51
[35]
  inhibition: 0%
[36]
  Activity: Non-toxic
[37]
  Drug metabolism: 302 pmol/min/mg
[4]
  pIC50: 7.33

## CCCn1cc(-c2cnc(NCc3ccc4sccc4c3)c(C(=O)NCC3COc4ccccc4O3)c2)cn1 (racemic)
[38]
  viability at 2 µM: 101%
[1]
  Efficacy: > 95%
[2]
  Activity: inactive
[3]
  pIC50: 7.08
[39]
  viability at 50 µM: 92%
[4]
  pIC50: 6.40

## CCn1cc(-c2cnc(NCc3ccc4c(c3)OCO4)c(C(=O)NC[C@H]3COc4ccccc4O3)c2)cn1
[1]
  Efficacy: > 95%
[2]
  Activity: inactive
[3]
  pIC50: 7.62
[4]
  pIC50: 6.96

## O=C(NC[C@H]1COc2ccccc2O1)c1cc(N2CCOCC2)cnc1NCc1ccc2c(c1)OCO2
[1]
  Efficacy: > 95%
[2]
  Activity: inactive
[3]
  pIC50: 7.33
[4]
  pIC50: 5.70

## CC(C)N1[C@@H]2CC[C@H]1C=C(c1cnc(NCc3ccc4c(c3)OCC4)c(C(=O)NC[C@H]3COc4ccccc4O3)c1)C2 (mixture of isomers)
[40]
  Activity: Toxic
[1]
  Efficacy: > 95%
[41]
  Activity: Toxic
[2]
  Activity: inactive
[3]
  pIC50: 9.64
[4]
  pIC50: 8.39

## O=C(NCC1COc2ccccc2O1)c1cc(-c2ccnc(Cl)c2)cnc1NCc1ccc2c(c1)OCC2 (racemic)
[1]
  Efficacy: > 95%
[2]
  Activity: inactive
[3]
  pIC50: 8.16
[4]
  pIC50: 6.41

## CCCn1cc(-c2cnc(NCc3ccc4ncsc4c3)c(C(=O)NCC3COc4ccccc4O3)c2)cn1 (stereo not drawn)
[1]
  Efficacy: > 95%
[2]
  Activity: inactive
[3]
  pIC50: 6.59
[4]
  pIC50: 6.05

## CCCn1cc(-c2cnc(NCc3ccc4c(c3)OCO4)c(C(=O)NCC3COc4ccccc4O3)c2)cn1 (stereo not drawn)
[38]
  viability at 2 µM: 85%
[1]
  Efficacy: > 95%
[2]
  Activity: inactive
[3]
  pIC50: 7.44
[39]
  viability at 50 µM: 69%
[4]
  pIC50: 6.77

## CCn1cc(-c2cnc(NCc3ccc4c(c3)OCO4)c(C(=O)NC[C@@H]3COc4ccccc4O3)c2)cn1
[1]
  Efficacy: > 95%
[2]
  Activity: inactive
[3]
  pIC50: 6.74
[4]
  pIC50: 5.26

## O=C(NC[C@H]1COc2ccccc2O1)c1cc(N2C[C@H]3CC[C@@H](C2)O3)cnc1NCc1ccc2c(c1)OCO2
[1]
  Efficacy: > 95%
[2]
  Activity: inactive
[3]
  pIC50: 8.27
[4]
  pIC50: 6.25

## H-RPKPFQWFWLL-NH2
[42]
  pIC50: 8.28
[43]
  pIC50: 6.84
[4]
  pIC50: 6.60

## CCCn1cc(-c2cnc(NCc3ccc4occc4c3)c(C(=O)NCC3COc4ccccc4O3)c2)cn1 (stereo not drawn)
[1]
  Efficacy: > 95%
[2]
  Activity: inactive
[3]
  pIC50: 6.82
[4]
  pIC50: 6.14

## CC(=O)N1CC=C(c2cnc(NCc3ccc4c(c3)OCO4)c(C(=O)NC[C@H]3COc4ccccc4O3)c2)CC1
[1]
  Efficacy: > 95%
[2]
  Activity: inactive
[3]
  pIC50: 7.38
[4]
  pIC50: 5.60
